Experimental data: the NIST ThermoML archive (doi:10.1021/acs.jced.7b00267)
± gives the expanded uncertainty stated by the source.

Settings: 101.35 kPa, Liquid; for viscosity: Falling or rolling sphere viscometry; for mass density: Vibrating tube method

SMILES: CCO [ethanol]
- viscosity (293.15 K): 1.194 ± 0.037 mPa·s
- mass density (293.15 K): 789.5 ± 0.4 kg/m3
- viscosity (298.15 K): 1.085 ± 0.034 mPa·s
- mass density (298.15 K): 785.2 ± 0.4 kg/m3
- viscosity (303.15 K): 0.9897 ± 0.031 mPa·s
- mass density (303.15 K): 780.8 ± 0.4 kg/m3
- viscosity (308.15 K): 0.9036 ± 0.028 mPa·s
- mass density (308.15 K): 776.5 ± 0.4 kg/m3
- viscosity (313.15 K): 0.8277 ± 0.026 mPa·s
- mass density (313.15 K): 772.1 ± 0.4 kg/m3
- viscosity (318.15 K): 0.759 ± 0.023 mPa·s
- mass density (318.15 K): 767.7 ± 0.4 kg/m3
- viscosity (323.15 K): 0.6978 ± 0.022 mPa·s
- mass density (323.15 K): 763.2 ± 0.4 kg/m3
- viscosity (328.15 K): 0.6434 ± 0.02 mPa·s
- mass density (328.15 K): 758.7 ± 0.4 kg/m3
- viscosity (333.15 K): 0.5942 ± 0.018 mPa·s
- mass density (333.15 K): 754.1 ± 0.4 kg/m3
